Source: patent US20180207111A1, “IMMUNOTHERAPY FOR CASR-EXPRESSING CANCER (E.G. NEUROBLASTOMA)” (HOSPITAL SANT JOAN DE DEU, priority 2015, published 2018)

Experiments:
[1] = system: LA-N-1; test: RT-qPCR mRNA expression in LA-N-1 neuroblastoma cells grown with Cinacalcet; format: cell-based, Homo sapiens; conditions: 1 μM Cinacalcet vs DMSO, up to 21 days
Description: Three neuroblastoma cell lines LA-N-1, SK-N-LP and SH-SY5Y were used for this purpose. […] No expression of the CaSR is detectable in SH-SY5Y either. Thus, SK-N-LP and SH-SY5Y were stably transfected with pCMV-CaSR-GFP or pCMV-GFP. All cell lines were grown in the presence of 1 μM Cinacalcet (Selleck Chemicals, S1260) or DMSO for 21 days in P100 plates. Morphology was assessed daily. Total RNA was isolated at days 1, 3, 5, 7, 10, 14 and 21. Several markers were analyzed by RT-qPCR using SYBRgreen and specific primers or Taqman technology and gene-specific Assays-on-Demand (Applied Biosystems) (Table 1).
These features reached maximal expression between days 7 and 14 (FIG. 1). […] Neuroblastoma cytodifferentiation is an indication of this tumor becoming more benign, less proliferative. […] Moreover, upregulation of these differentiation-associated genes and CTAs both in vitro and in vivo (see Examples 2-4) validates the proposed in vitro model (doses used, time of exposure, etc) as a good model to evaluate neuroblastoma response to treatment with Cinacalcet.

[2] = system: LA-N-1 cells subcutaneous xenograft; test: In vivo neuroblastoma model: tumor growth / event-free survival; set-up: species or system mice; conditions: 10 mg/kg/day oral gavage 6 days per week vs vehicle; log-rank P=0.034; FIG. 2A
Description: An in vivo model of neuroblastoma was generated in four to six-week-old female athymic Nude-Foxn1 nu/nu mice (Charles Rivers), wherein LA-N-1 cells (10^7) were subcutaneously inoculated. Tumors were allowed to grow until dimensions reached 7×7 mm. Then mice were randomized to receive either vehicle (described below) or Cinacalcet (10 mg/kg/day) by oral gavage 6 days per week until tumor volume reached 2 cm^3. Cinacalcet was prepared with Mimpara® tablets (Amgen). Following homogenization of the Mimpara® tablets in a mortar, the resulting powder was reconstituted with 0.5% Tween 20 (20%, v/v) and carboxymethylcellulose (0.25%, w/v) to a final concentration of […]. Each dose contained 5 μL of this mixture per gram of mouse weight. Dimensions of tumors were measured thrice a week using a digital caliper. Tumor volume was calculated as L×W^2/2 in which “L” indicates length in mm and “W” indicates width in mm. At the end of the experiment (each mouse was sacrificed when the corresponding xenograft reached the final pre-determined volume 2 cm^3), tumors were excised and half of each specimen was frozen in liquid nitrogen for molecular analyses and the other was fixed in 10% formalin. For event-free survival (EFS) analysis, an event was defined as tumor size that exceeded 2 cm^3. The log-rank statistic was used to compare the EFS probabilities between groups. […]

[3] = system: LA-N-1 xenografts; test: Genome-wide expression analysis of xenografts, Affymetrix Human Gene Array 2.1 ST; format: in vivo
Description: Total RNA was isolated from 8 xenografts exposed to Cinacalcet (C) and 8 from the control group (V). These were the last 8 tumors excised in each group, so that analyzed xenografts were those exposed to the longest period of treatment (V5-V12 and C4-C11). Two different mRNA expression analyses were conducted: Genome-wide expression analysis by microarrays (Example 3) and by RT-qPCR (Example 4).
Genome-wide expression analyses were performed using Affymetrix Human and Mouse Gene Array 2.1 ST (Affymetrix, reference number 902136 for human gene array and 902120 for mouse gene array) as per manufacturer's protocol. Procedures to analyze results included: Quality control of the arrays (following this step, xenograft C6 was removed from further analyses); filtering and normalization; selection of differentially expressed genes; single comparison (treated versus control samples); list of differentially expressed genes ranked by significance; Volcano plots showing the most differentially expressed genes; heatmaps of the clustered expression profiles; and analysis of biological significance through enrichment analysis against the Gene Ontologies, KEGG (Kyoto Encyclopedia of Genes and Genomes) and Ingenuity pathways.
However, these differences of gene expression were not statistically significant, adjusted P-value >0.05 (Table 3). Nonetheless, in this first analysis, corresponding to heatmap on FIG. 3, it was apparent that a group of genes were specifically modulated in the three tumors exposed to Cinacalcet for the longest period of time. This was confirmed by a second genome-wide expression analysis that examined differentially expressed genes in these three specimens (C9-C11) compared to the 8 vehicle-treated tumors (V5-V12) (FIG. 4).

[4] = Plasmatic ionic Ca2+ and tolerability in xenograft-bearing mice; format: in vivo
From the text: FIG. 2 comprises graphs showing (A) Effect of Cinacalcet treatment on survival (%) in an in vivo neuroblastoma model treated with Cinacalcet (triangle) or vehicle (circle) over time (days); (B) Plasmatic ionic Ca^2+ concentrations (mmol/L) in mice receiving Cinacalcet (triangle) or vehicle (circle) over time (weeks).
An in vivo model of neuroblastoma was generated in four to six-week-old female athymic Nude-Foxn1 nu/nu mice (Charles Rivers), wherein LA-N-1 cells (10^7) were subcutaneously inoculated. Tumors were allowed to grow until dimensions reached 7×7 mm. Then mice were randomized to receive either vehicle (described below) or Cinacalcet (10 mg/kg/day) by oral gavage 6 days per week until tumor volume reached 2 cm^3. Cinacalcet was prepared with Mimpara® tablets (Amgen). […] Dimensions of tumors were measured thrice a week using a digital caliper. Tumor volume was calculated as L×W^2/2 in which “L” indicates length in mm and “W” indicates width in mm. At the end of the experiment (each mouse was sacrificed when the corresponding xenograft reached the final pre-determined volume 2 cm^3), tumors were excised and half of each specimen was frozen in liquid nitrogen for molecular analyses and the other was fixed in 10% formalin. […]

[5] = three longest-treated xenografts C9-C11 vs vehicle V5-V12, adjusted P 0.00986984
[6] = three longest-treated xenografts C9-C11 vs vehicle V5-V12, adjusted P 0.01746325
[7] = three longest-treated xenografts C9-C11 vs vehicle V5-V12, adjusted P 0.01874439
[8] = three longest-treated xenografts C9-C11 vs vehicle V5-V12, adjusted P 0.02269447
[9] = three longest-treated xenografts C9-C11 vs vehicle V5-V12, adjusted P 0.0249218
[10] = three longest-treated xenografts C9-C11 vs vehicle V5-V12, adjusted P 0.04520061
[11] = three longest-treated xenografts C9-C11 vs vehicle V5-V12, adjusted P 0.04907024
[12] = three longest-treated xenografts C9-C11 vs vehicle V5-V12, adjusted P 0.05146784
[13] = xenografts C4, C5, C7-C11 vs vehicle V5-V12, 10 mg/kg/day oral, adjusted P 0.35366385
[14] = xenografts C4, C5, C7-C11 vs vehicle V5-V12, 10 mg/kg/day oral, adjusted P 0.52209349
[15] = xenografts C4, C5, C7-C11 vs vehicle V5-V12, 10 mg/kg/day oral, adjusted P 0.61235652

## C[C@@H](NCCCc1cccc(C(F)(F)F)c1)c1cccc2ccccc12 [Cinacalcet]
[1]
  CTCFL mRNA fold increase: 1.2 fold
  MAGEA2 mRNA fold increase: 2.9 fold
  MAGEA3 mRNA fold increase: 1.4 fold
  NFL mRNA fold increase: ns
  NTRK1 mRNA fold increase: 3.2 fold
  NTRK3 mRNA fold increase: 2.4 fold
  S100-β mRNA fold increase: 6.9 fold
  SSX4/4B mRNA fold increase: 3.8 fold
  TUBB3 mRNA fold increase: ns
[1]; primer pair GAGE P1
  GAGE-P1 mRNA fold increase: 2.7 fold
[1]; primer pair GAGE P2
  GAGE-P2 mRNA fold increase: 7.6 fold
[1]; primer pair GAGE P3
  GAGE-P3 mRNA fold increase: 5.1 fold
[2]
  Tumor growth (event-free survival, event = tumor size > 2 cm^3): significant tumor growth inhibition
[3]; three longest-treated xenografts C9-C11 vs vehicle V5-V12, adjusted P 0.00358764
  Log fold change, probe 17104825 (CXorf49//CXorf49B): 1.857
[3]; [5]
  Log fold change, probe 16695923 (FAM78B): 1.543
  Log fold change, probe 17070589 (CNBD1): 1.801
  Log fold change, probe 17103272 (SSX4B//SSX4): 1.389
  Log fold change, probe 17104821 (CXorf49//CXorf49B): 2.714
[3]; three longest-treated xenografts C9-C11 vs vehicle V5-V12, adjusted P 0.01361569
  Log fold change, probe 16972634 (LOC285500): 1.359
[3]; three longest-treated xenografts C9-C11 vs vehicle V5-V12, adjusted P 0.01682153
  Log fold change, probe 17103626 (GAGE12G//GAGE12F//GAGE12I//GAGE7//... GAGE family, Entrez 645073): 2.202
[3]; [6]
  Log fold change, probe 17103647 (GAGE2A//GAGE2C//GAGE2B//GAGE2D//... GAGE family, Entrez 729447): 2.059
  Log fold change, probe 17103679 (GAGE2A//GAGE2C//GAGE12G//GAGE12F//... GAGE family, Entrez 729447): 2.03
[3]; [7]
  Log fold change, probe 16837128 (PRKCA): 1.165
  Log fold change, probe 16926807 (CECR7): 1.23
  Log fold change, probe 17103653 (GAGE12C//GAGE12D//GAGE12E//GAGE12G//... GAGE family, Entrez 729422): 2.183
  Log fold change, probe 17103655 (GAGE12C//GAGE12D//GAGE12E//GAGE12H//... GAGE family, Entrez 729422): 2.032
  Log fold change, probe 17103673 (GAGE12G//GAGE12C//GAGE12D//GAGE12E//... GAGE family, Entrez 645073): 1.962
[3]; [8]
  Log fold change, probe 16982161 (PDLIM3): 1.187
  Log fold change, probe 16986694 (SPZ1): 1.239
  Log fold change, probe 17103614 (GAGE12J//GAGE2D//GAGE2E//GAGE8//... GAGE family, Entrez 729396): 1.853
  Log fold change, probe 17103620 (GAGE13//GAGE12D//GAGE12E//GAGE12B//... GAGE family, Entrez 645051): 2.07
  Log fold change, probe 17103690 (GAGE12H//GAGE12C//GAGE12D//GAGE12E//... GAGE family, Entrez 729442): 1.931
  Log fold change, probe 17110576 (SSX4//SSX4B): 1.272
[3]; three longest-treated xenografts C9-C11 vs vehicle V5-V12, adjusted P 0.02361429
  Log fold change, probe 16938527 (RBMS3): 1.243
[3]; [9]
  Log fold change, probe 16711753 (PROSER2-AS1): 1.36
  Log fold change, probe 16838249 (LOC100507351): 1.078
  Log fold change, probe 17111994 (RGAG4): 1.076
[3]; three longest-treated xenografts C9-C11 vs vehicle V5-V12, adjusted P 0.03166044
  Log fold change, probe 17113928 (TENM1): 1.577
[3]; three longest-treated xenografts C9-C11 vs vehicle V5-V12, adjusted P 0.04211565
  Log fold change, probe 16679142 (RYR2): 1.356
[3]; three longest-treated xenografts C9-C11 vs vehicle V5-V12, adjusted P 0.04288827
  Log fold change, probe 17043613 (LOC100505938): 1.14
[3]; [10]
  Log fold change, probe 16970118 (SYNPO2): 1.722
  Log fold change, probe 17115014 (GABRA3): 1.248
[3]; three longest-treated xenografts C9-C11 vs vehicle V5-V12, adjusted P 0.0462006
  Log fold change, probe 16732397 (POU2F3): 1.148
[3]; [11]
  Log fold change, probe 16752147 (NEUROD4): 1.009
  Log fold change, probe 16928510 (SEZ6L): 1.17
[3]; [12]
  Log fold change, probe 16812942 (NTRK3): 1.186
  Log fold change, probe 16920617 (CTCFL): 1.866
[3]; [13]
  Log fold change, probe 16837226 (SNORA38B): 1.107
  Log fold change, probe 16902703 (POTEF): 1.124
[3]; xenografts C4, C5, C7-C11 vs vehicle V5-V12, 10 mg/kg/day oral, adjusted P 0.39648602
  Log fold change, probe 17103626 (GAGE12G//GAGE12F//GAGE12I//GAGE7//... GAGE family, Entrez 645073): 1.489
[3]; xenografts C4, C5, C7-C11 vs vehicle V5-V12, 10 mg/kg/day oral, adjusted P 0.4625512
  Log fold change, probe 17103647 (GAGE2A//GAGE2C//GAGE2B//GAGE2D//... GAGE family, Entrez 729447): 1.341
[3]; xenografts C4, C5, C7-C11 vs vehicle V5-V12, 10 mg/kg/day oral, adjusted P 0.47520907
  Log fold change, probe 17103679 (GAGE2A//GAGE2C//GAGE12G//GAGE12F//... GAGE family, Entrez 729447): 1.318
[3]; [14]
  Log fold change, probe 17103614 (GAGE12J//GAGE2D//GAGE2E//GAGE8//... GAGE family, Entrez 729396): 1.191
  Log fold change, probe 17103620 (GAGE13//GAGE12D//GAGE12E//GAGE12B//... GAGE family, Entrez 645051): 1.314
  Log fold change, probe 17103653 (GAGE12C//GAGE12D//GAGE12E//GAGE12G//... GAGE family, Entrez 729422): 1.354
  Log fold change, probe 17103655 (GAGE12C//GAGE12D//GAGE12E//GAGE12H//... GAGE family, Entrez 729422): 1.313
  Log fold change, probe 17103673 (GAGE12G//GAGE12C//... GAGE family, Entrez 645073): 1.257
  Log fold change, probe 17103690 (GAGE12H//GAGE12C//GAGE12D//GAGE12E//... GAGE family, Entrez 729442): 1.261
[3]; [15]
  Log fold change, probe 16920617 (CTCFL): 1.137
  Log fold change, probe 17104821 (CXorf49//CXorf49B): 1.423
[4]; mice, 10 mg/kg/day oral gavage, FIG. 2B
  Plasmatic ionic Ca2+ concentration: Mild, non-symptomatic, hypocalcemia
[4]; mouse, in vivo, po, 10 mg/kg/day
  Signs of toxicity: No signs of toxicity were observed
